Tests used:
Type in all cases: biochemical
human Tie2 = target: T1, human Tie2 (Homo sapiens, UniProt Q02763); assay: Tie2 assay of PLC phosphorylation (FlashPlate); settings: read-out: IC 50 TIE2
T1 construct: amino acids of the intracellular domain 776-1124; made in house
Description: The coding sequence of human Tie2, corresponding to the amino acids of the intracellular domain 776-1124, was generated by PCR, using the cDNA isolated from human placenta as a model. This sequence was introduced into a baculovirus expression vector pFastBacGT in the form of a GST fusion protein.
The inhibitory effect of the molecules is determined in an assay of PLC phosphorylation by Tie2 in the presence of GST-Tie2 purified to approximately 80% homogeneity. The substrate is composed of the SH2-SH3 fragments of PLC expressed in the form of a GST fusion protein.
The kinase activity of Tie2 is measured in a 20 mM MOPS buffer, pH 7.2, containing 10 mM MgCl2, 10 mM MnCl2, 1 mM DTT, 10 mM of glycerol-phosphate. In a 96-well FlashPlate plate, kept on ice, a reaction mixture is deposited which is composed of 70 μl of kinase buffer containing 100 ng of GST-Tie2 enzyme per well. Subsequently 10 μl of the test molecule diluted to a concentration of 10% maximum in DMvSO are added. For a given concentration, each measurement is carried out in quadruplicate. The reaction is initiated by adding 20 μl of solution containing 2 μg of GST-PLC, 2 μM of cold ATP and 1 μCi of ^33P[ATP]. After 1 hour of incubation at 37° C., the reaction is terminated by adding 1 volume (100 μl) of 200 mM EDTA. Following removal of the incubation buffer, the wells are washed three times with 300 μl of PBS. The radioactivity is measured on a Wallac MicroBeta 1450.
The inhibition of Tie2 activity is calculated and expressed as a percentage inhibition relative to the control activity determined in the absence of compound.

Aurora2 = target: T2, Aurora2 (Homo sapiens, UniProt O14965); assay: Aurora2 enzyme assay, NuMA substrate phosphorylation (Flashplate); settings: read-out: IC 50 Aurora2
T2 construct: Aurora 2: whole recombinant protein comprising an N-terminal histidine tail; His tag (histidine tail) (N); made in house; host or cells: E. coli
T2 sequence (O14965 1-403): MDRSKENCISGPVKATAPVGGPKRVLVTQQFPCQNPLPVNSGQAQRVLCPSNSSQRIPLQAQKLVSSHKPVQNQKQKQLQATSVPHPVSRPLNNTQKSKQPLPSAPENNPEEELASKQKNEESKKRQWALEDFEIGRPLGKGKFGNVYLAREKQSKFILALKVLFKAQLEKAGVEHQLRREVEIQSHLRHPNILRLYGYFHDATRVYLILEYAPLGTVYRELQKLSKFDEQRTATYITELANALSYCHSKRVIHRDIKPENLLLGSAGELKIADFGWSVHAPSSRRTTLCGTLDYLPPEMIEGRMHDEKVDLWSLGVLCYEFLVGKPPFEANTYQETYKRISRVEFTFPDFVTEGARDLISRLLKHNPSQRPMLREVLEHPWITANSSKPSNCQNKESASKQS
Description: The inhibitory effect of compounds with respect to the kinases Aurora1 and Aurora2 is determined by an enzyme assay employing radioactivity detection.
The kinase activity of Aurora 1 and Aurora 2 is evaluated by the phosphorylation of the substrate Numa-histidine in the presence of radiolabeled ATP ([^33P]ATP), using 96-well Flashplate plates in which nickel chelate is fixed to the surface of the microplate. The amount of ^33P phosphate incorporated in the NuMA substrate is proportional to the activity of the enzyme Aurora1 or Aurora2.
The proteins are produced in the protein production laboratory of the SanofiAventis group.
Aurora 2: whole recombinant protein comprising an N-terminal histidine tail, expressed in E. coli and purified to more than 82%.
NuMA (nuclear protein that associates with the mitotic apparatus) fragment of 424 amino acids, expressed in E. coli, whose N-terminal end has been labeled with histidine and used as a substrate for the two Aurora enzymes.
The microplates used are 96-well Flash-Plate plates with nickel chelate (Perkin Elmer, model SMP107).
The products for evaluation are incubated in a reaction volume of 100 μL per well in the presence of 10 nM of Aurora 1 or Aurora 2, 500 nM of NuMA substrate in a buffer composed of 50 mM of Tris/HCl (pH 7.5), 50 mM NaCl, 5 mM MgCl2 (Aurora-B) or 10 mM MgCl2 (Aurora-A) and 1 mM of DTT, at 37° C.
In each well, 80 μL of the enzyme/substrate incubation buffer are distributed, followed by 10 μL of the product to be evaluated, in variable concentrations. The reaction is initiated by adding 1 μM of final ATP containing 0.2 μCi of [^33P]ATP (10 μL). After 30 minutes of incubation, the reaction is terminated by simply removing the reaction buffer and each well is washed twice with 300 μl of the Tris/HCl buffer. The radioactivity is then measured in each well by means of a scintillation apparatus, Packard, Top count model.
The control enzyme activity of Aurora is expressed by the number of counts per minute obtained within 30 minutes, after deduction of the background noise (reaction mixture not containing the enzyme). The evaluation of the various test products is expressed in percentage inhibition of the Aurora activity relative to the control.

human KDR enzyme = target: T3, human KDR enzyme (Homo sapiens, UniProt P35968); assay: KDR substrate phosphorylation assay (scintillation, 96-well plate)
T3 construct: The cytoplasmic domain of the human KDR enzyme was cloned in the form of a GST fusion; GST; made in house; host or cells: SF21 insect cells (baculovirus, pFastBac)
T3 sequence (P35968 786-1356 limits assumed): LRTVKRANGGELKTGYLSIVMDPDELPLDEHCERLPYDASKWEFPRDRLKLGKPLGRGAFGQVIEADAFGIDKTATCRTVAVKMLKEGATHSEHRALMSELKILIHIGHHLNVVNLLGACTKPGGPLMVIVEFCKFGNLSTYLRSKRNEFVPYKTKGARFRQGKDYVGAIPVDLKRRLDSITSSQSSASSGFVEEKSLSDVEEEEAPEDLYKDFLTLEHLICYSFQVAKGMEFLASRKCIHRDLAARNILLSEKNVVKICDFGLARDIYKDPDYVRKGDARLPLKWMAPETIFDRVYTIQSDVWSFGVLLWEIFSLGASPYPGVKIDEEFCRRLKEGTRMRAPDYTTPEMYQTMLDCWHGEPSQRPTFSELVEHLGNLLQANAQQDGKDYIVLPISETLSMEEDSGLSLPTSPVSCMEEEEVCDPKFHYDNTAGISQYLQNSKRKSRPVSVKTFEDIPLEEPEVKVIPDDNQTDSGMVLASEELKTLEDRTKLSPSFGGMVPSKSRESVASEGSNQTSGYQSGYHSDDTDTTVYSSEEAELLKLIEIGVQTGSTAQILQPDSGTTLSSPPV
Description: The inhibitory effect of the compounds is determined in an assay of substrate phosphorylation by the KDR enzyme in vitro using a scintillation technique (96-well plate, NEN).
The cytoplasmic domain of the human KDR enzyme was cloned in the form of a GST fusion into the baculovirus expression vector pFastBac. The protein was expressed in SF21 cells and purified to approximately 60% homogeneity.
The KDR kinase activity is measured in 20 mM MOPS, 10 mM MgCl2, 10 mM MnCl2, 1 mM DTT, 2.5 mM EGTA, 10 mM β-glycerophosphate, pH=7.2, in the presence of 10 mM MgCl2, 100 μM Na3VO4, 1 mM NaF. 10 μl of the compound are added to 70 μl of kinase buffer, containing 100 ng of KDR enzyme at 4° C. The reaction is triggered by adding 20 μl of solution containing 2 μg of substrate (SH2-SH3 fragment of PLCγ expressed in the form of a GST fusion protein), 2 μCi γ^33P[ATP] and 2 μM cold ATP. After 1 hour of incubation at 37° C., the reaction is stopped by adding 1 volume (100 μl) of 200 mM EDTA. The incubation buffer is withdrawn and the wells are washed three times with 300 μl of PBS. The radioactivity is measured in each well using a Top Count NXT radioactivity counter (Packard).
The background noise is determined by measuring the radioactivity in four different wells containing the radioactive ATP and the substrate alone.
A control for total activity is measured in four different wells containing all of the reagents (γ^33P-[ATP], KDR and PLCγ substrate), but in the absence of compound.
The inhibition of KDR activity with the compound of the invention is expressed in percentage inhibition of the control activity determined in the absence of compound.
The compound SU5614 (Calbiochem) (1 μM) is included in each plate as an inhibition control.

T1 sequence (Q02763 776-1124): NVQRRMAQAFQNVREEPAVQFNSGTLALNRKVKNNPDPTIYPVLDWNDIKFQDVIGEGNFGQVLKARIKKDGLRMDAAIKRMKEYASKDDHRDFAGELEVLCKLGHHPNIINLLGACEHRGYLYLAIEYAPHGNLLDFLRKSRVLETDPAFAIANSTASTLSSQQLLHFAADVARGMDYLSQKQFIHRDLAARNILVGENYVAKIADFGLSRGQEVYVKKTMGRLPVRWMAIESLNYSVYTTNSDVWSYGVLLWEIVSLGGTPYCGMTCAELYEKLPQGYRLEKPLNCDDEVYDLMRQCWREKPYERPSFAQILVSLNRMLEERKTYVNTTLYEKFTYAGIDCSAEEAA

Compound	IC50 (human Tie2)	IC50 (Aurora2)	IC50 (human KDR enzyme)
Nc1n[nH]c2c(F)c(-c3ccc(NC(=O)Nc4cccc(C(F)(F)F)c4)cc3)ccc12 [Example 19, 1-[4-(3-Amino-7-fluoro-1H-indazol-6-yl)phenyl]-3-(3-trifluoromethylphenyl)urea]	231 nM	92 nM	329 nM
Cc1ccc(-n2nc(C(C)(C)C)cc2NC(=O)Nc2ccc(-c3ccc4c(NC(=O)c5ccsc5)n[nH]c4c3F)cc2)cc1 [Example 16, 1-(4-{7-Fluoro-3-[(thiophen-3-yl)carbonylamino]-1H-indazol-6-yl}phenyl)-3-(5-tert-butyl-2-p-tolyl-2H-pyrazol-3-yl)urea]	3 nM	142 nM	19 nM
O=C(Nc1ccc(-c2ccc3c(NC(=O)C4CCCN4)n[nH]c3c2F)cc1)Nc1cc(C(F)(F)F)ccc1F [Example 26, 1-(4-{7-Fluoro-3-[(L-pyrrolidin-2-yl)carbonylamino]-1H-indazol-6-yl}phenyl)-3-(2-fluoro-5-trifluoromethylphenyl)urea]	626 nM	3380 nM	1050 nM
Nc1n[nH]c2c(F)c(-c3ccc(NC(=O)Nc4ccccc4F)cc3)ccc12 [Example 22, 1-[4-(3-Amino-7-fluoro-1H-indazol-6-yl)phenyl]-3-(2-fluorophenyl)urea]	5850 nM	143 nM	1940 nM
O=C(Nc1ccc(-c2ccc3c(NC(=O)c4ccsc4)n[nH]c3c2)cc1)Nc1cc(C(F)(F)F)ccc1F [Example 10, 1-(4-[3-[(Thiophen-3-yl)carbonylamino]-1H-indazol-6-yl}phenyl)-3-(2-fluoro-5-trifluoromethylphenyl)urea]	18 nM	171 nM	166 nM
O=C(Nc1ccccc1)Nc1ccc(-c2ccc3c(NC(=O)c4ccsc4)n[nH]c3c2F)cc1 [Example 12, 1-(4-{7-Fluoro-3-[(thiophen-3-yl)carbonylamino]-1H-indazol-6-yl}phenyl)-3-phenylurea]	36 nM	14 nM	2770 nM
O=C(Nc1ccc(-c2ccc3c(NC(=O)c4ccsc4)n[nH]c3c2F)cc1F)Nc1cc(C(F)(F)F)ccc1F [Example 11, 1-(4-{7-Fluoro-3-[(thiophen-3-yl)carbonylamino]-1H-indazol-6-yl}-2-fluorophenyl)-3-(2-fluoro-5-trifluoromethylphenyl)urea]	11 nM	185 nM	37 nM

From US7517902B2, “Substituted indazoles, compositions containing the same, and the preparation and use thereof” (Aventis Pharma S.A., priority 2004, dated 2009)
